Measurements published in publication PMC8605562, “MSMEG_3955 from Mycobacterium smegmatis is a FMN bounded homotrimeric NAD(P)H:Flavin mononucleotide (FMN) oxidoreductase” (BMC Microbiology, 2021).

B1: MSMEG_3955 with cysteine 63 replaced by alanine (enzyme, Mycobacterium smegmatis mc2 155, UniProt A0QZA6 1-334, looked up)
chain: MNTHFPDTETIHAALALAMRAPSIHNSQPWQWRVGERSVHLYADLDRHLTSTDPDSRDLLLSAGAALHHCVIAFAALGWYASVHRLPNPAEPEHLASIELRRQTPTDLDIALAAAIPRRRTDRRHYSAWPVSHSDIAMMGARAARAGVMLRRVESLSRLQDIVAESIARHAADDGYLRELTAWSGKYASTAGVPARSAPKPEPGAPLSSRMFAGAALKQPDTGAGADEGAVVLALGTADDTRMSRLRAGEATSLILLTATAMGLATCPVTEPLEISETRDAVQAEVFGASAFPQMMLRVGWAPVNADPLPPTPRRHVADAVRWLDGSPFEPESE
notes: MSMEG_3955, Mycobacterium smegmatis mc2 155, made by site-directed mutagenesis on the pET-28a plasmid of the wild-type gene; cysteine (TGC) at position 63 replaced with alanine (GCC); Same construct as m1 apart from C63A; also called cys-63 mutated native protein MSMEG_3955; mutated protein; source: E. coli BL21 (DE3), pET-28a, purified (Ni-NTA)

Key:
[1] = target: T1, MSMEG_3955 (Mycolicibacterium smegmatis, UniProt A0QZA6); experiment: NADPH oxidation at […] nm; format: biochemical; conditions: 200 uM NADPH, 50 uM FMN, 1.6 uM enzyme, 50 mM Tris-HCl pH 7.6, 25 °C, aerobic
T1 construct: ~36 kDa subunit, homotrimer ~115 kDa; co-purifies with FMN
T1 sequence (A0QZA6 entry or part of it): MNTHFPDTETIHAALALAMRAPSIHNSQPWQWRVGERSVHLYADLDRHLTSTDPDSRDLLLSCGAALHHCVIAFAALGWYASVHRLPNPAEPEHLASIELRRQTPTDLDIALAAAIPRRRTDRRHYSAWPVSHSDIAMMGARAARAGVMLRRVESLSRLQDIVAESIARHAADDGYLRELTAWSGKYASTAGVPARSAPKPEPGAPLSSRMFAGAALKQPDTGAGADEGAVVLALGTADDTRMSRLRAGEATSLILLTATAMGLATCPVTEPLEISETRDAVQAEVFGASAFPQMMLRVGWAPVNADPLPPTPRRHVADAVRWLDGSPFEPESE

[2] = target: the molecule itself; experiment: native gel or EMSA; NATIVE-PAGE (12% in the methods, 10% in the legend of Fig. 3a) of purified protein loaded without any treatment, 10 ug (Fig. 3a) or 20 ug each of wild type and mutant (Fig. 2a); band at ~115 kDa against ~36 kDa on SDS-PAGE

Molecule | NADPH oxidation at 340 nm [1] | binding result [2]
NC(=O)C1=CN([C@@H]2O[C@H](COP(=O)(O)OP(=O)(O)OC[C@H]3O[C@@H](n4cnc5c(N)ncnc54)[C@H](OP(=O)(O)O)[C@@H]3O)[C@@H](O)[C@H]2O)C=CC1 [NADPH] | showed oxidative NADPH dependent FMN reductase activity as oxidation of NADPH was seen | 
B1 |  | binds
